Where two headings read alike, the source gives them in different places.
Legend:
[1] = target: recombinant human BACE-1 protein (Homo sapiens (Human), UniProt P56817); experiment: Measurement of Inhibition of β-Secretase Activity; format: biochemical
Summary of the method: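 Recombinant human BACE-1 incubated with compound and Eu-cryptate-labelled biotinylated peptide substrate 3 h at 30° C in 50 mM sodium acetate pH 5.0, 0.008% Triton X-100. Streptavidin-XL665 in KF-containing phosphate buffer pH 7.0 then added, 1 h at 30° C, for time-resolved FRET read-out.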

[2] = fluorescence-quenched peptide substrate 18 nM, BACE-1 7.4 nM, 3 h at 30° C., pH5.0, read-out: IC50 value
[3] = recombinant human BACE-1 protein, 3 h at 30° C., pH5.0, read-out: IC50 value

Sequence of recombinant human BACE-1 protein (P56817 46-501): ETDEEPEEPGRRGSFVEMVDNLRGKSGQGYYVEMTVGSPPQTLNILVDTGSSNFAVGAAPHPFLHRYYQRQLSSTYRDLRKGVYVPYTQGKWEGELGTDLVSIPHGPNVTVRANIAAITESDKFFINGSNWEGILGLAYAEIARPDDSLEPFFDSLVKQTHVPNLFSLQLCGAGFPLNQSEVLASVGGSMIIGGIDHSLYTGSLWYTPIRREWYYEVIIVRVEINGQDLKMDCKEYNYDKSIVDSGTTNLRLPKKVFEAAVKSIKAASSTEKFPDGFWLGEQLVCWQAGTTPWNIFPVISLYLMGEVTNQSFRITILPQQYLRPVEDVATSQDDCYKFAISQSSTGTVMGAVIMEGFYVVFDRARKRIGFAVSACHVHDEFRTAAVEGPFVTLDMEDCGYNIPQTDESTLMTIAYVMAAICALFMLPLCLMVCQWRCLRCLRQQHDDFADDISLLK

| Structure (SMILES) | IC50 [1, 2] [µM] | melting point | IC50 [1, 3] [µM] | IC50 [1] [µM] |
| --- | --- | --- | --- | --- |
| CC1(c2cccc(NCc3ccccn3)c2)CCSC(N)=N1 (stereo not shown) [Compound 333] | < 100 | 154 to 158 °C | – | – |
| CC1(c2cccc(Br)c2)CCSC(N)=N1.Cl (stereo not shown) [Compound 339] | < 100 | 217 to 218 °C | – | – |
| Cc1cnc(C(=O)Nc2ccc(F)c(C3(C)CCSC(N)=N3)c2)cn1 (stereo not shown) [Compound 359] | < 100 | 212 to 214 °C | – | – |
| CCC1(c2cccc(NC(=O)c3ccc(Cl)cn3)c2)CCSC(N)=N1 (stereo not shown) [Compound 380] | < 100 | 181 to 182 °C | – | – |
| CC1(c2cc(NC(=O)c3ccc(C(F)(F)F)cn3)ccc2F)CCSC(N)=N1 (stereo not shown) [Compound 396] | < 100 | 211 to 213 °C | – | – |
| COc1ccc(C(=O)Nc2cccc(C3(C)CCSC(N)=N3)c2)nn1 (stereo not shown) [Compound 405] | < 100 | 192 to 194 °C | – | – |
| CC(C)Oc1cnc(C(=O)Nc2cccc(C3(C)CCSC(N)=N3)c2)cn1 (stereo not shown) [Compound 410] | < 100 | 178 to 182 °C | – | – |
| CC1(c2ccc(O)cc2)CCSC(N)=N1.Cl (stereo not shown) [Compound 413] | < 100 | 251 to 254 °C | – | – |
| CCOC(=O)/C=C/c1cccc(C2(C)CCSC(N)=N2)c1 (stereo not shown) [Compound 417] | – | 137 to 139 °C | 5 | – |
| Cc1cc(C(=O)Nc2cc(Br)cc(C3(C)CCSC(N)=N3)c2)c(C)o1.Cl (stereo not shown) [Compound 436] | – | 254 to 256 °C | 0.16 | – |
| Cc1cnc(C(=O)Nc2cccc(C3(C)CCSC(N)=N3)c2)cn1 (stereo not shown) [Compound 444] | – | 214 to 215 °C | – | < 100 |
| COc1ccc(C(=O)NCc2cccc(C3(C)CCSC(N)=N3)c2)cc1.Cl (stereo not shown) [Compound 452] | < 100 | 132 to 134 °C | – | – |
| CC1(c2cccc(/C=N/OCc3ccncc3)c2)CCSC(N)=N1 (stereo not shown) [Compound 456] | < 100 | 147 to 149 °C | – | – |
| COCc1cc(NC(=O)c2ccc(C)cc2)cc(C2(C)CCSC(N)=N2)c1 (stereo not shown) [Compound 465] | – | 194.6 °C | 3.24 | – |
| CC1(c2ccc(C(=O)Nc3ccccc3)s2)CCSC(N)=N1 (stereo not shown) [Compound 483] | < 100 | 224 to 227 °C | – | – |
| CC1(c2cccc(NC(=O)c3ccc(C#N)cc3)c2)CCSC(N)=N1 (stereo not shown) [Compound 498] | – | 122 to 125 °C | 0.93 | – |
| CC1(c2ccc(C(=O)Nc3ccc(Cl)cn3)s2)CCSC(N)=N1 (stereo not shown) [Compound 500] | < 100 | 181 to 184 °C | – | – |
| CC1(c2cccc(CO)c2)CCSC(N)=N1 (stereo not shown) [Compound 501] | < 100 | 155 to 156 °C | – | – |
| COc1ccc(OCc2cccc(C3(C)CCSC(N)=N3)c2)cc1 (stereo not shown) [Compound 502] | < 100 | 137 to 138 °C | – | – |

| Structure (SMILES) | IC50 [1, 2] [µM] | melting point | IC50 [1, 3] [µM] | IC50 [1] [µM] |
| --- | --- | --- | --- | --- |
| CC1(c2cccc(/C=C/C(=O)Nc3ccc(Cl)cn3)c2)CCSC(N)=N1.Cl.Cl (stereo not shown) [Compound 504] | – | 209 to 219 °C | 2.5 | – |
| CC(=O)Nc1cc(Cl)cnc1C(=O)Nc1cccc(C2(C)CCSC(N)=N2)c1 (stereo not shown) [Compound 511] | < 100 | 211 to 214 °C | – | – |
| CC1(c2cccc(NC(=O)c3ncc(Cl)cn3)c2)CCSC(N)=N1 (stereo not shown) [Compound 515] | < 100 | 204 to 206 °C | – | – |
| Cc1ccc(C(=O)Nc2cccc(C3(C)CCSC(N)=N3)c2)nc1 (stereo not shown) [Compound 528] | < 100 | 173 to 174 °C | – | – |
| CC1(c2ccc(F)cc2)CCSC(N)=N1 (stereo not shown) [Compound 549] | < 100 | 100 to 101 °C | – | – |
| COc1ccc(C2(C)CCSC(N)=N2)cc1F (stereo not shown) [Compound 551] | < 100 | 139 to 141 °C | – | – |
| CC1(c2cc(Br)cc(NC(=O)c3nc4ccccc4s3)c2)CCSC(N)=N1.Cl (stereo not shown) [Compound 570] | – | 186 to 187 °C | 0.149 | – |
| CC1(c2cccc(/C=N/OCc3cccnc3)c2)CCSC(N)=N1 (stereo not shown) [Compound 584] | < 100 | 152 to 153 °C | – | – |
| CC1(c2cc(N)cc(Br)c2)CCSC(N)=N1.Cl.Cl (stereo not shown) [Compound 588] | < 100 | 155 to 156 °C | – | – |
| COc1ccc(CNc2cccc(C3(C)CCSC(N)=N3)c2)cc1.Cl.Cl (stereo not shown) [Compound 600] | < 100 | 178 to 180 °C | – | – |
| CC1(c2cccc(/C=N/O)c2)CCSC(N)=N1 (stereo not shown) [Compound 611] | < 100 | 200 to 202 °C | – | – |
| CC1(c2cccc(NC(=O)c3ccc(Cl)cc3Cl)c2)CCSC(N)=N1 (stereo not shown) [Compound 625] | – | 107 to 109 °C | 1.29 | – |
| CC1(c2cccc(NC(=O)c3ncc(C(F)(F)F)cc3F)c2)CCSC(N)=N1 (stereo not shown) [Compound 643] | < 100 | 155 to 157 °C | – | – |
| CC1(c2cccc(CCC(=O)Nc3ccc(Cl)cn3)c2)CCSC(N)=N1.Cl.Cl (stereo not shown) [Compound 657] | < 100 | 199 to 203 °C | – | – |
| COC(=O)c1cc(C(=O)Nc2cccc(C3(C)CCSC(N)=N3)c2)nn1C (stereo not shown) [Compound 687] | < 100 | 164 to 167 °C | – | – |
| CCOC(=O)CCc1cccc(C2(C)CCSC(N)=N2)c1.Cl (stereo not shown) [Compound 720] | < 100 | 133 to 138 °C | – | – |
| CC1(c2cccc(NCc3ccncc3)c2)CCSC(N)=N1 (stereo not shown) [Compound 728] | < 100 | 179 to 182 °C | – | – |
| Cc1ccccc1Oc1ccc(C2(C)CCSC(N)=N2)cc1 (stereo not shown) [Compound 729] | < 100 | 167 to 169 °C | – | – |
| Cc1cc(C(=O)Nc2cc(Br)cc(C3(C)CCSC(N)=N3)c2)c(C)o1 (stereo not shown) [Compound 731] | – | 91 to 94 °C | 0.278 | – |

| Structure (SMILES) | IC50 [1, 2] [µM] | melting point | IC50 [1, 3] [µM] | IC50 [1] [µM] |
| --- | --- | --- | --- | --- |
| CC1(c2ccc(Oc3ccc(Br)cc3)cc2)CCSC(N)=N1 (stereo not shown) [Compound 735] | < 100 | 166 to 168 °C | – | – |
| Cl.NC1=NC(c2cccc(NC(=O)c3ccc(Cl)cn3)c2)CCS1 (stereo not shown) [Compound 740] | – | 250 °C (dec.) | 0.505 | – |
| Cc1ccccc1C1(C)CCSC(N)=N1 (stereo not shown) [Compound 756] | < 100 | 110 to 111 °C | – | – |
| Cc1ccc2cc(C3(C)CCSC(N)=N3)ccc2c1 (stereo not shown) [Compound 758] | < 100 | 156 to 157 °C | – | – |
| CC1(c2cccc(NC(=O)c3ccc(Cl)cn3)c2)CCSC(N)=N1.Cl (stereo not shown) [Compound 793] | – | 269 °C (dec.) | 0.061 | – |
| CO/N=C/c1cccc(C2(C)CCSC(N)=N2)c1 (stereo not shown) [Compound 804] | < 100 | 135 to 136 °C | – | – |
| CC1(c2cccc(NC(=O)c3ccc(Cl)cn3)c2Cl)CCSC(N)=N1 (stereo not shown) [Compound 813] | < 100 | 204 to 205 °C | – | – |
| CC1(c2ccccc2)CC(c2ccccc2)SC(N)=N1 (stereo not shown) [Compound 835] | < 100 | 139 to 140 °C | – | – |
| COc1ccc2cc(C3(C)CCSC(N)=N3)ccc2c1 (stereo not shown) [Compound 871] | < 100 | 212 to 213 °C | – | – |
| CC1(c2cc(NC(=O)c3ccc(C(F)(F)F)cn3)cc(C(F)(F)F)c2)CCSC(N)=N1 (stereo not shown) [Compound 897] | – | 212 to 214 °C | 0.816 | – |
| CC1(c2cccc(SC(=O)c3ncc(Br)cn3)c2)CCSC(N)=N1 (stereo not shown) [Compound 900] | < 100 | 205 to 207 °C | – | – |
| CC1(c2cccc(NC(=O)c3ccc4ccccc4n3)c2)CCSC(N)=N1 (stereo not shown) [Compound 935] | < 100 | 161 to 165 °C | – | – |
| COc1ccc(CCCOc2cccc(C3(C)CCSC(N)=N3)c2)cc1.Cl (stereo not shown) [Compound 936] | < 100 | 169 to 170 °C | – | – |
| CC1(c2cc(NC(=O)c3ccc(Cl)cn3)cc(C(F)(F)F)c2)CCSC(N)=N1 (stereo not shown) [Compound 964] | – | 185 to 187 °C | 0.264 | – |
| CC1(c2cccc(COc3ccccc3)c2)CCSC(N)=N1 (stereo not shown) [Compound 990] | < 100 | 126 to 129 °C | – | – |
| CC(C)c1ccc(C(=O)Nc2cccc(C3(C)CCSC(N)=N3)c2)nc1 (stereo not shown) [Compound 1005] | < 100 | 191 to 193 °C | – | – |
| CC1(c2cccc(OCCCc3ccccc3)c2)CCSC(N)=N1 (stereo not shown) [Compound 1010] | – | 90 to 91 °C | 2.8 | – |
| CC1(c2cc(Br)cc(NC(=O)c3cc4ccccc4s3)c2)CCSC(N)=N1.Cl (stereo not shown) [Compound 1014] | – | 206 to 210 °C | 0.165 | – |

Reference: patent US8546380B2, “Aminodihydrothiazine derivatives” (Shionogi & Co., Ltd., priority 2005, dated 2013)
